Key:
Experiment in all cases: relative viability (nuclei count vs DMSO), 5 days (fraction); higher = more cells survive
Ispinesib + Lapatinib = compound: Cc1ccc(C(=O)N(CCCN)[C@@H](c2nc3cc(Cl)ccc3c(=O)n2Cc2ccccc2)C(C)C)cc1 [Ispinesib] + CS(=O)(=O)CCNCc1ccc(-c2ccc3ncnc(Nc4ccc(OCc5cccc(F)c5)c(Cl)c4)c3c2)o1 [Lapatinib] (partner 2 µM)
How it was run: (§1)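 Lung cancer cell lines in 1536-well plates got either a single drug or a fixed anchor-drug dose together with five library-drug doses (not always all listed) in √10 steps, by pin tool, on the day after seeding. Nuclei were counted after 5 days, and relative viability is the treated-to-vehicle ratio of nuclei counts. Values are medians of duplicate plates.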

Linsitinib + Pemetrexed = compound: C[C@]1(O)C[C@@H](c2nc(-c3ccc4ccc(-c5ccccc5)nc4c3)c3c(N)nccn32)C1 [Linsitinib] + Nc1nc2[nH]cc(CCc3ccc(C(=O)N[C@@H](CCC(=O)O)C(=O)O)cc3)c2c(=O)[nH]1 [Pemetrexed] (partner 0.2 µM)
How it was run: as §1

Linsitinib + Trametinib = compound: C[C@]1(O)C[C@@H](c2nc(-c3ccc4ccc(-c5ccccc5)nc4c3)c3c(N)nccn32)C1 [Linsitinib] + CC(=O)Nc1cccc(-n2c(=O)n(C3CC3)c(=O)c3c(Nc4ccc(I)cc4F)n(C)c(=O)c(C)c32)c1 [Trametinib] (partner 0.02 µM)
How it was run: as §1

Ispinesib + Bortezomib = compound: Cc1ccc(C(=O)N(CCCN)[C@@H](c2nc3cc(Cl)ccc3c(=O)n2Cc2ccccc2)C(C)C)cc1 [Ispinesib] + CC(C)C[C@H](NC(=O)[C@H](Cc1ccccc1)NC(=O)c1cnccn1)B(O)O [Bortezomib] (partner 0.002 µM)
How it was run: as §1

Cell Line | relative viability (Ispinesib + Lapatinib; first compound 0.001 µM) | relative viability (Ispinesib + Lapatinib; first compound 0.003162 µM) | relative viability (Ispinesib + Lapatinib; first compound 0.01 µM) | relative viability (Ispinesib + Lapatinib; first compound 0.03162 µM) | relative viability (Ispinesib + Lapatinib; first compound 0.1 µM) | relative viability (Linsitinib + Pemetrexed; first compound 0.01 µM) | relative viability (Linsitinib + Pemetrexed; first compound 0.03162 µM) | relative viability (Linsitinib + Pemetrexed; first compound 0.1 µM) | relative viability (Linsitinib + Pemetrexed; first compound 0.3162 µM) | relative viability (Linsitinib + Pemetrexed; first compound 1 µM) | relative viability (Linsitinib + Trametinib; first compound 0.01 µM) | relative viability (Linsitinib + Trametinib; first compound 0.03162 µM) | relative viability (Linsitinib + Trametinib; first compound 0.1 µM) | relative viability (Linsitinib + Trametinib; first compound 0.3162 µM) | relative viability (Linsitinib + Trametinib; first compound 1 µM) | relative viability (Ispinesib + Bortezomib; first compound 0.001 µM) | relative viability (Ispinesib + Bortezomib; first compound 0.003162 µM) | relative viability (Ispinesib + Bortezomib; first compound 0.01 µM) | relative viability (Ispinesib + Bortezomib; first compound 0.03162 µM) | relative viability (Ispinesib + Bortezomib; first compound 0.1 µM)
A549 | 1.07 | 1.07 | 0.952 | 0.172 | 0.127 | – | – | – | – | – | – | – | – | – | – | – | – | – | – | –
NCI-H2342 | – | – | – | – | – | 0.731 | 0.746 | 0.732 | 0.82 | 0.704 | 0.788 | 0.886 | 0.791 | 0.777 | 0.729 | – | – | – | – | –
NCI-H1703 | 1.32 | 0.893 | 0.227 | 0.11 | 0.234 | – | – | – | – | – | – | – | – | – | – | 0.28 | 0.298 | 0.0844 | 0.0907 | 0.106
NCI-H727 | – | 0.81 | 0.809 | 0.426 | 0.29 | – | – | – | – | – | 0.349 | 0.403 | 0.317 | 0.358 | 0.29 | – | 1.71 | 1.21 | 0.762 | 0.337
IA-LM | 0.833 | 1.03 | 0.513 | 0.123 | 0.197 | – | – | – | – | – | – | – | – | – | – | 1.09 | 0.814 | 0.866 | 0.0909 | 0.111
NCI-H522 | – | – | – | – | – | 0.831 | 0.839 | 1.01 | 0.652 | 0.839 | 0.918 | 0.784 | 0.714 | 0.613 | 0.582 | – | – | – | – | –
SW 900 | – | – | – | – | – | 0.484 | 0.44 | 0.478 | 0.438 | 0.405 | 0.741 | 0.986 | 0.762 | 0.72 | 0.674 | – | – | – | – | –
NCI-H358 | 0.475 | 0.421 | 0.473 | 0.345 | 0.215 | 0.187 | 0.168 | 0.183 | 0.141 | 0.162 | 0.15 | 0.148 | 0.13 | 0.118 | 0.0976 | – | – | – | – | –
NCI-H1563 | 1.03 | 0.956 | 0.928 | 0.686 | 0.624 | 0.791 | 0.883 | 0.718 | 1.09 | 0.752 | – | – | – | – | – | 0.903 | 0.815 | 0.929 | 0.687 | 0.669
LCLC-103H | – | – | – | – | – | 0.441 | 0.459 | 0.46 | 0.341 | 0.505 | 0.658 | 0.56 | 0.688 | 0.632 | 0.647 | 0.96 | 1.27 | 1.19 | 0.813 | 0.447
LK-2 | 1.07 | 1.07 | 0.908 | 0.681 | 0.313 | 0.123 | 0.285 | 0.148 | 0.215 | 0.153 | 0.892 | 0.626 | 0.599 | 0.39 | 0.643 | – | – | – | – | –
NCI-H1648 | – | – | – | – | – | 0.95 | 0.553 | 0.658 | 0.592 | 0.826 | 0.517 | 0.482 | 0.53 | 0.388 | 0.385 | – | – | – | – | –
ChaGo-K-1 | – | – | – | – | – | 0.263 | 0.243 | 0.271 | – | 0.261 | 0.947 | 0.973 | 0.892 | – | 0.961 | 1.02 | 1.45 | 1.11 | 0.966 | 0.379
NCI-H441 | – | – | – | – | – | 0.246 | 0.284 | 0.259 | 0.234 | 0.291 | 0.537 | 0.44 | 0.339 | 0.215 | 0.231 | 0.48 | 0.668 | 0.4 | 0.41 | 0.228
NCI-H2170 | 0.265 | 0.252 | 0.269 | 0.182 | 0.214 | 0.255 | 0.241 | 0.251 | – | 0.276 | 0.948 | 0.906 | 0.849 | – | 0.89 | – | – | – | – | –
Calu-6 | 1.24 | 0.955 | 0.526 | 0.217 | 0.256 | – | – | – | – | – | – | – | – | – | – | 0.9 | 0.725 | 0.24 | 0.137 | 0.202
NCI-H1395 | 1.1 | 1.11 | 0.779 | 0.545 | 0.33 | 0.77 | – | 0.979 | 0.673 | 0.835 | 1 | – | 1.05 | 0.961 | 1.03 | – | – | – | – | –
NCI-H1793 | 0.655 | 0.84 | 0.909 | 0.377 | 0.238 | 0.834 | 0.819 | 0.842 | 0.584 | 0.63 | 0.414 | 0.479 | 0.457 | 0.36 | 0.395 | – | – | – | – | –
SK-MES-1 | 0.534 | 0.506 | 0.54 | 0.5 | 0.168 | 0.991 | 0.795 | 0.958 | 0.784 | 0.753 | 0.516 | 0.484 | 0.556 | 0.503 | 0.521 | – | – | – | – | –
NCI-H1299 | 1.02 | 0.988 | 0.979 | 0.813 | 0.3 | – | – | – | – | – | – | – | – | – | – | 1.02 | 1.06 | 1.07 | 1.01 | 0.671
EBC-1 | 0.203 | 0.204 | 0.223 | 0.13 | 0.193 | – | – | – | – | – | – | – | – | – | – | 0.663 | 0.626 | 0.476 | 0.207 | 0.263
NCI-H1944 | 0.863 | 0.799 | 1.01 | 0.528 | 0.27 | 0.597 | 0.574 | 0.661 | 0.426 | 0.492 | 0.395 | 0.465 | 0.381 | 0.356 | 0.346 | – | – | – | – | –

Source: the supplement of paper PMC10307832
